Data from US9302999B2, “Substituted triazoles as herbicides” (E. I. DU PONT DE NEMOURS AND COMPANY, priority 2012, dated 2016).

Key:
Type in all cases: in vivo
[1] = test system: velvetleaf (Abutilon theophrasti); assay: Test C pre-/postemergence: velvetleaf
From the text: (§1) Seeds of plant species selected from blackgrass (Alopecurus myosuroides), bromegrass, downy (downy bromegrass, Bromus tectorum), foxtail, green (green foxtail, Setaria viridis), ryegrass, Italian (Italian ryegrass, Lolium multiflorum), winter wheat (Triticum aestivum), wild oat (Avena fatua), galium (catchweed bedstraw, Galium aparine), bermudagrass (Cynodon dactylon), surinam grass (Brachiaria decumbens), cocklebur (common cocklebur, Xanthium strumarium), corn (Zea mays), large crabgrass (Digitaria sanguinalis), woolly cupgrass (Eriochloa villosa), foxtail, giant (giant foxtail, Setaria faberii), goosegrass (Eleusine indica), johnsongrass (Sorghum halepense), kochia (Kochia scoparia), lambsquarters (Chenopodium album), morningglory (Ipomoea coccinea), nightshade (eastern black nightshade, Solanum ptycanthum), nutsedge, yellow (yellow nutsedge, Cyperus esculentus), pigweed (Amaranthus retroflexus), ragweed (common ragweed, Ambrosia elation), soybean (Glycine max), common (oilseed) sunflower (Helianthus annuus), Russian thistle (Salsola kali) and velvetleaf (Abutilon theophrasti) were planted into a blend of loam soil and sand and treated preemergence with test chemicals formulated in a non-phytotoxic solvent mixture which included a surfactant.
(§2) At the same time, plants selected from these crop and weed species and also barley (winter barley, Hordeum vulgare), canarygrass (Phalaris minor), chickweed (common chickweed, Stellaria media) windgrass (Apera spica-venti) and deadnettle (henbit deadnettle, Lamium amplexicaule) were planted in pots containing Redi-Earth® planting medium (Scotts Company, 14111 Scottslawn Road, Marysville, Ohio 43041) comprising spaghnum peat moss, vermiculite, wetting agent and starter nutrients and treated with postemergence applications of test chemicals formulated in the same manner. Plants ranged in height from 2 to 18 cm (1- to 4-leaf stage) for postemergence treatments.
(§3) Treated plants and controls were maintained in a greenhouse for 13 to 15 days, after which time all species were compared to controls and visually evaluated. Plant response ratings, summarized in Table C, are based on a scale of 0 to 100 where 0 is no effect and 100 is complete control. A dash (-) response means no test result.

corn (Zea mays) = assay: Test C pre-/postemergence: corn
From the text: as §1, §2, §3

[2] = test system: galium (catchweed bedstraw, Galium aparine); assay: Test C pre-/postemergence: galium
From the text: as §1, §2, §3

[3] = test system: ryegrass, Italian (Italian ryegrass, Lolium multiflorum); assay: Test C pre-/postemergence: ryegrass, Italian
From the text: as §1, §2, §3

wild oat (Avena fatua) = assay: Test C pre-/postemergence: wild oat
From the text: as §1, §2, §3

[4] = test system: large crabgrass (Digitaria sanguinalis); assay: Test C pre-/postemergence: large crabgrass
From the text: as §1, §2, §3

[5] = test system: foxtail, giant (giant foxtail, Setaria faberii); assay: Test C pre-/postemergence: foxtail, giant
From the text: as §1, §2, §3

[6] = test system: johnsongrass (Sorghum halepense); assay: Test C pre-/postemergence: johnsongrass
From the text: as §1, §2, §3

[7] = test system: morningglory (Ipomoea coccinea); assay: Test C pre-/postemergence: morningglory
From the text: as §1, §2, §3

kochia (Kochia scoparia) = assay: Test C pre-/postemergence: kochia
From the text: as §1, §2, §3

[8] = Postemergence, 31 g ai/ha, scale 0 to 100 (0 no effect, 100 complete control)
[9] = Postemergence, 62 g ai/ha, scale 0 to 100 (0 no effect, 100 complete control)
[10] = Postemergence, 125 g ai/ha, scale 0 to 100, 0 no effect, 100 complete control
[11] = Postemergence, 250 g ai/ha, scale 0 to 100
[12] = Preemergence, 31 g ai/ha, scale of 0 to 100, 0 is no effect, 100 is complete control
[13] = Preemergence, 62 g ai/ha, scale of 0 to 100, 0 is no effect, 100 is complete control
[14] = Preemergence, 125 g ai/ha, scale 0 to 100, 0 no effect, 100 complete control
[15] = Preemergence, 250 g ai/ha, scale 0 to 100, 0 no effect, 100 complete control
[16] = Preemergence, 62 g ai/ha, scale 0 to 100, 0 no effect, 100 complete control
[17] = Postemergence, 16 g ai/ha, scale 0 to 100, 0 no effect, 100 complete control
[18] = Preemergence, 16 g ai/ha, scale 0 (no effect) to 100 (complete control)

Structure (SMILES): FC(F)(F)COc1nn(-c2ccc(C(F)(F)F)cc2)nc1Cc1ccnc(C(F)(F)F)c1 [Compound 14, 4-[[5-(2,2,2-trifluoroethoxy)-2-[4-(trifluoromethyl)phenyl]-2H-1,2,3-triazol-4-yl]methyl]-2-(trifluoromethyl)pyridine]
- Plant response rating, Velvetleaf [1, 8]: 75
- Plant response rating, Velvetleaf [1, 9]: 80
- Plant response rating, Velvetleaf [1, 10]: 85
- Plant response rating, Velvetleaf [1, 11]: 90
- Plant response rating, Velvetleaf [1, 12]: 10
- Plant response rating, Velvetleaf [1, 13]: 10
- Plant response rating, Velvetleaf [1, 14]: 70
- Plant response rating, Velvetleaf [1, 15]: 75
- Plant response rating, Corn (corn (Zea mays); [8]): 5
- Plant response rating, Corn (corn (Zea mays); [9]): 10
- Plant response rating, Corn (corn (Zea mays); [10]): 15
- Plant response rating, Corn (corn (Zea mays); [11]): 15
- Plant response rating, Corn (corn (Zea mays); [12]): 0
- Plant response rating, Corn (corn (Zea mays); [16]): 0
- Plant response rating, Corn (corn (Zea mays); [14]): 5
- Plant response rating, Corn (corn (Zea mays); [15]): 10
- Plant response rating, Galium [2, 8]: 60
- Plant response rating, Galium [2, 9]: 80
- Plant response rating, Galium [2, 10]: 80
- Plant response rating, Galium [2, 11]: 80
- Plant response rating, Galium [2, 12]: 20
- Plant response rating, Galium [2, 13]: 90
- Plant response rating, Galium [2, 14]: 100
- Plant response rating, Galium [2, 15]: 100
- Plant response rating, Ryegrass, Italian [3, 8]: 30
- Plant response rating, Ryegrass, Italian [3, 9]: 35
- Plant response rating, Ryegrass, Italian [3, 10]: 35
- Plant response rating, Ryegrass, Italian [3, 11]: 40
- Plant response rating, Ryegrass, Italian [3, 12]: 10
- Plant response rating, Ryegrass, Italian [3, 13]: 35
- Plant response rating, Ryegrass, Italian [3, 14]: 60
- Plant response rating, Ryegrass, Italian [3, 15]: 85
- Plant response rating, Oat, Wild (wild oat (Avena fatua); [8]): 25
- Plant response rating, Oat, Wild (wild oat (Avena fatua); [9]): 45
- Plant response rating, Oat, Wild (wild oat (Avena fatua); [10]): 50
- Plant response rating, Oat, Wild (wild oat (Avena fatua); [11]): 60
- Plant response rating, Oat, Wild (wild oat (Avena fatua); [12]): 20
- Plant response rating, Oat, Wild (wild oat (Avena fatua); [13]): 40
- Plant response rating, Oat, Wild (wild oat (Avena fatua); [14]): 70
- Plant response rating, Oat, Wild (wild oat (Avena fatua); [15]): 90
- Plant response rating, Crabgrass, Large [4, 8]: 10
- Plant response rating, Crabgrass, Large [4, 9]: 45
- Plant response rating, Crabgrass, Large [4, 10]: 45
- Plant response rating, Crabgrass, Large [4, 11]: 60
- Plant response rating, Crabgrass, Large [4, 12]: 95
- Plant response rating, Crabgrass, Large [4, 13]: 100
- Plant response rating, Crabgrass, Large [4, 14]: 100
- Plant response rating, Crabgrass, Large [4, 15]: 100
- Plant response rating, Foxtail, Giant [5, 8]: 10
- Plant response rating, Foxtail, Giant [5, 9]: 15
- Plant response rating, Foxtail, Giant [5, 10]: 30
- Plant response rating, Foxtail, Giant [5, 11]: 35
- Plant response rating, Foxtail, Giant [5, 12]: 95
- Plant response rating, Foxtail, Giant [5, 13]: 98
- Plant response rating, Foxtail, Giant [5, 14]: 100
- Plant response rating, Foxtail, Giant [5, 15]: 100
- Plant response rating, Johnsongrass [6, 8]: 20
- Plant response rating, Johnsongrass [6, 9]: 20
- Plant response rating, Johnsongrass [6, 10]: 55
- Plant response rating, Johnsongrass [6, 11]: 75
- Plant response rating, Johnsongrass [6, 12]: 20
- Plant response rating, Johnsongrass [6, 13]: 45
- Plant response rating, Johnsongrass [6, 14]: 80
- Plant response rating, Johnsongrass [6, 15]: 85
- Plant response rating, Morningglory [7, 8]: 75
- Plant response rating, Morningglory [7, 9]: 80
- Plant response rating, Morningglory [7, 10]: 80
- Plant response rating, Morningglory [7, 11]: 95
- Plant response rating, Morningglory [7, 12]: 10
- Plant response rating, Morningglory [7, 13]: 10
- Plant response rating, Morningglory [7, 14]: 55
- Plant response rating, Morningglory [7, 15]: 65
- Plant response rating, Kochia (kochia (Kochia scoparia); [8]): 90
- Plant response rating, Kochia (kochia (Kochia scoparia); [9]): 95
- Plant response rating, Kochia (kochia (Kochia scoparia); [10]): 95
- Plant response rating, Kochia (kochia (Kochia scoparia); [11]): 95
- Plant response rating, Kochia (kochia (Kochia scoparia); [12]): 0
- Plant response rating, Kochia (kochia (Kochia scoparia); [13]): 0
- Plant response rating, Kochia (kochia (Kochia scoparia); [14]): 75
- Plant response rating, Kochia (kochia (Kochia scoparia); [15]): 85

Structure (SMILES): COc1nn(-c2ccc(C(F)(F)F)cc2)nc1Cc1ccnc(C(F)(F)F)c1 [Compound 15, 4-[[5-methoxy-2-[4-(trifluoromethyl)phenyl]-2H-1,2,3-triazol-4-yl]methyl]-2-(trifluoromethyl)pyridine]
- Plant response rating, Velvetleaf [1, 17]: 60
- Plant response rating, Velvetleaf [1, 8]: 60
- Plant response rating, Velvetleaf [1, 9]: 60
- Plant response rating, Velvetleaf [1, 10]: 90
- Plant response rating, Velvetleaf [1, 18]: 0
- Plant response rating, Velvetleaf [1, 12]: 0
- Plant response rating, Velvetleaf [1, 13]: 20
- Plant response rating, Velvetleaf [1, 14]: 80
- Plant response rating, Corn (corn (Zea mays); [17]): 0
- Plant response rating, Corn (corn (Zea mays); [8]): 5
- Plant response rating, Corn (corn (Zea mays); [9]): 15
- Plant response rating, Corn (corn (Zea mays); [10]): 35
- Plant response rating, Corn (corn (Zea mays); [18]): 0
- Plant response rating, Corn (corn (Zea mays); [12]): 0
- Plant response rating, Corn (corn (Zea mays); [16]): 0
- Plant response rating, Corn (corn (Zea mays); [14]): 10
- Plant response rating, Galium [2, 17]: 50
- Plant response rating, Galium [2, 8]: 55
- Plant response rating, Galium [2, 9]: 55
- Plant response rating, Galium [2, 10]: 80
- Plant response rating, Galium [2, 18]: 50
- Plant response rating, Galium [2, 12]: 75
- Plant response rating, Galium [2, 13]: 95
- Plant response rating, Galium [2, 14]: 98
- Plant response rating, Ryegrass, Italian [3, 17]: 10
- Plant response rating, Ryegrass, Italian [3, 8]: 30
- Plant response rating, Ryegrass, Italian [3, 9]: 45
- Plant response rating, Ryegrass, Italian [3, 10]: 60
- Plant response rating, Ryegrass, Italian [3, 18]: 10
- Plant response rating, Ryegrass, Italian [3, 12]: 40
- Plant response rating, Ryegrass, Italian [3, 13]: 45
- Plant response rating, Ryegrass, Italian [3, 14]: 80
- Plant response rating, Oat, Wild (wild oat (Avena fatua); [17]): 40
- Plant response rating, Oat, Wild (wild oat (Avena fatua); [8]): 45
- Plant response rating, Oat, Wild (wild oat (Avena fatua); [9]): 55
- Plant response rating, Oat, Wild (wild oat (Avena fatua); [10]): 60
- Plant response rating, Oat, Wild (wild oat (Avena fatua); [18]): 35
- Plant response rating, Oat, Wild (wild oat (Avena fatua); [12]): 40
- Plant response rating, Oat, Wild (wild oat (Avena fatua); [13]): 70
- Plant response rating, Oat, Wild (wild oat (Avena fatua); [14]): 70
- Plant response rating, Crabgrass, Large [4, 17]: 5
- Plant response rating, Crabgrass, Large [4, 8]: 15
- Plant response rating, Crabgrass, Large [4, 9]: 45
- Plant response rating, Crabgrass, Large [4, 10]: 60
- Plant response rating, Crabgrass, Large [4, 18]: 98
- Plant response rating, Crabgrass, Large [4, 12]: 100
- Plant response rating, Crabgrass, Large [4, 13]: 100
- Plant response rating, Crabgrass, Large [4, 14]: 100
- Plant response rating, Foxtail, Giant [5, 17]: 5
- Plant response rating, Foxtail, Giant [5, 8]: 10
- Plant response rating, Foxtail, Giant [5, 9]: 10
- Plant response rating, Foxtail, Giant [5, 10]: 75
- Plant response rating, Foxtail, Giant [5, 18]: 95
- Plant response rating, Foxtail, Giant [5, 12]: 95
- Plant response rating, Foxtail, Giant [5, 13]: 100
- Plant response rating, Foxtail, Giant [5, 14]: 100
- Plant response rating, Johnsongrass [6, 17]: 0
- Plant response rating, Johnsongrass [6, 8]: 45
- Plant response rating, Johnsongrass [6, 9]: 60
- Plant response rating, Johnsongrass [6, 10]: 80
- Plant response rating, Johnsongrass [6, 18]: 15
- Plant response rating, Johnsongrass [6, 12]: 55
- Plant response rating, Johnsongrass [6, 13]: 85
- Plant response rating, Johnsongrass [6, 14]: 90
- Plant response rating, Morningglory [7, 17]: 45
- Plant response rating, Morningglory [7, 8]: 75
- Plant response rating, Morningglory [7, 9]: 75
- Plant response rating, Morningglory [7, 10]: 90
- Plant response rating, Morningglory [7, 18]: 5
- Plant response rating, Morningglory [7, 12]: 5
- Plant response rating, Morningglory [7, 13]: 15
- Plant response rating, Morningglory [7, 14]: 45
- Plant response rating, Kochia (kochia (Kochia scoparia); [17]): 90
- Plant response rating, Kochia (kochia (Kochia scoparia); [8]): 95
- Plant response rating, Kochia (kochia (Kochia scoparia); [9]): 95
- Plant response rating, Kochia (kochia (Kochia scoparia); [10]): 95
- Plant response rating, Kochia (kochia (Kochia scoparia); [18]): 0
- Plant response rating, Kochia (kochia (Kochia scoparia); [12]): 70
- Plant response rating, Kochia (kochia (Kochia scoparia); [13]): 70
- Plant response rating, Kochia (kochia (Kochia scoparia); [14]): 85
